The subject of the data set is CCRIS mutagenicity, Ames/micronucleus/aberration tests. Kind of data set: CCRIS mutagenicity studies.
[1] abbreviates: Test System: AMES SALMONELLA TYPHIMURIUM, Strain/Indicator: TA98, Metabolic Activation: NONE, Method: PREINCUBATION
Setting [2] is: Test System: AMES SALMONELLA TYPHIMURIUM, Strain/Indicator: TA100, Metabolic Activation: NONE, Method: PREINCUBATION
Setting [3] is: Test System: AMES SALMONELLA TYPHIMURIUM, Strain/Indicator: TA98, Metabolic Activation: NONE, Method: STANDARD PLATE.
Where [4] appears, read: Test System: AMES SALMONELLA TYPHIMURIUM, Strain/Indicator: TA1537, Metabolic Activation: NONE, Method: STANDARD PLATE.
Where [5] appears, read: Test System: AMES SALMONELLA TYPHIMURIUM, Strain/Indicator: TA100, Metabolic Activation: NONE, Method: STANDARD PLATE.

Structures are written as SMILES. Activity calls are given as the source filed them. How the calls were made is not given here.

Our source for the mutagenic call values is PubChem BioAssay AID1259407 (Chemical Carcinogenesis Research Information System (CCRIS), 2018).

On to `Sc1ccccc1`, for which the mutagenic call runs as follows: under setting [1], “inactive; negative”; (Test System: AMES SALMONELLA TYPHIMURIUM, Strain/Indicator: TA98, Metabolic Activation: RAT LIVER S-9, PHENOBARBITAL AND BETA-NAPHTHOFLAVONE, Method: PREINCUBATION) “inactive; negative”; under setting [2], “inactive; negative”; (Test System: AMES SALMONELLA TYPHIMURIUM, Strain/Indicator: TA100, Metabolic Activation: RAT LIVER S-9, PHENOBARBITAL AND BETA-NAPHTHOFLAVONE, Method: PREINCUBATION) “inactive; negative”; (Test System: AMES SALMONELLA TYPHIMURIUM, Strain/Indicator: TA1535, Metabolic Activation: NONE, Method: PREINCUBATION) “inactive; negative”; (Test System: AMES SALMONELLA TYPHIMURIUM, Strain/Indicator: TA1535, Metabolic Activation: RAT LIVER S-9, PHENOBARBITAL AND BETA-NAPHTHOFLAVONE, Method: PREINCUBATION) “inactive; negative”. Besides, the mutagenic call is “inactive; negative” (Test System: AMES SALMONELLA TYPHIMURIUM, Strain/Indicator: TA1537, Metabolic Activation: NONE, Method: PREINCUBATION); “inactive; negative” (Test System: AMES SALMONELLA TYPHIMURIUM, Strain/Indicator: TA1537, Metabolic Activation: RAT LIVER S-9, PHENOBARBITAL AND BETA-NAPHTHOFLAVONE, Method: PREINCUBATION); “inactive; negative” (Test System: AMES SALMONELLA TYPHIMURIUM, Strain/Indicator: TA1538, Metabolic Activation: NONE, Method: PREINCUBATION); “inactive; negative” (Test System: AMES SALMONELLA TYPHIMURIUM, Strain/Indicator: TA1538, Metabolic Activation: RAT LIVER S-9, PHENOBARBITAL AND BETA-NAPHTHOFLAVONE, Method: PREINCUBATION); “active; positive” (Test System: E.COLI, Strain/Indicator: WP2UVRA, Metabolic Activation: NONE, Method: PREINCUBATION); “inactive; negative” (Test System: E.COLI, Strain/Indicator: WP2UVRA, Metabolic Activation: RAT LIVER S-9, PHENOBARBITAL AND BETA-NAPHTHOFLAVONE, Method: PREINCUBATION).
As to `[Co]`, the mutagenic call (End Point: IN VITRO MICRONUCLEUS, Test System: HUMAN LYMPHOCYTES, Metabolic Activation: NONE) was “active; positive”; the mutagenic call under setting [3] was “active; positive”; the mutagenic call (Test System: AMES SALMONELLA TYPHIMURIUM, Strain/Indicator: TA98, Metabolic Activation: RAT, LIVER, S-9, PHENOBARBITAL, Method: STANDARD PLATE) is “inactive; negative”; the mutagenic call (Test System: AMES SALMONELLA TYPHIMURIUM, Strain/Indicator: TA102, Metabolic Activation: NONE, Method: STANDARD PLATE) was “inactive; negative”; the mutagenic call (Test System: AMES SALMONELLA TYPHIMURIUM, Strain/Indicator: TA102, Metabolic Activation: RAT, LIVER, S-9, PHENOBARBITAL, Method: STANDARD PLATE) was “inactive; negative”; the mutagenic call (Test System: AMES SALMONELLA TYPHIMURIUM, Strain/Indicator: TA1535, Metabolic Activation: NONE, Method: STANDARD PLATE) is “inactive; negative”. In addition, the mutagenic call was “inactive; negative” (Test System: AMES SALMONELLA TYPHIMURIUM, Strain/Indicator: TA1535, Metabolic Activation: RAT, LIVER, S-9, PHENOBARBITAL, Method: STANDARD PLATE); “active; positive” under setting [4]; “inactive; negative” (Test System: AMES SALMONELLA TYPHIMURIUM, Strain/Indicator: TA1537, Metabolic Activation: RAT, LIVER, S-9, PHENOBARBITAL, Method: STANDARD PLATE).
Regarding `CC(=O)Nc1ccc(/C=N/n2nnc3c([nH]c4ccccc43)c2=O)cc1`, the mutagenic call was “active; positive” (Test System: AMES SALMONELLA TYPHIMURIUM, Strain/Indicator: TA97, Metabolic Activation: NONE, Method: PREINCUBATION); “active; positive” (Test System: AMES SALMONELLA TYPHIMURIUM, Strain/Indicator: TA97, Metabolic Activation: RAT, LIVER, S-9, AROCLOR 1254 (10%), Method: PREINCUBATION); “active; positive” under setting [1]; “active; positive” (Test System: AMES SALMONELLA TYPHIMURIUM, Strain/Indicator: TA98, Metabolic Activation: RAT, LIVER, S-9, AROCLOR 1254 (10%), Method: PREINCUBATION); “active; positive” under setting [2]; “active; positive” (Test System: AMES SALMONELLA TYPHIMURIUM, Strain/Indicator: TA100, Metabolic Activation: RAT, LIVER, S-9, AROCLOR 1254 (10%), Method: PREINCUBATION). Besides, the mutagenic call by setting is: (Test System: AMES SALMONELLA TYPHIMURIUM, Strain/Indicator: TA102, Metabolic Activation: NONE, Method: PREINCUBATION) “inactive; negative”; (Test System: AMES SALMONELLA TYPHIMURIUM, Strain/Indicator: TA102, Metabolic Activation: RAT, LIVER, S-9, AROCLOR 1254 (10%), Method: PREINCUBATION) “inactive; negative”.
With `C1COCCOCCOCCOCCOCCOCCO1`, the mutagenic call under setting [3] was “inactive; negative”; the mutagenic call (Test System: AMES SALMONELLA TYPHIMURIUM, Strain/Indicator: TA98, Metabolic Activation: RAT, LIVER, S-9, AROCLOR 1254, Method: STANDARD PLATE) was “inactive; negative”; the mutagenic call under setting [5] was “inactive; negative”; the mutagenic call (Test System: AMES SALMONELLA TYPHIMURIUM, Strain/Indicator: TA100, Metabolic Activation: RAT, LIVER, S-9, AROCLOR 1254, Method: STANDARD PLATE) was “inactive; negative”; the mutagenic call (Test System: AMES SALMONELLA TYPHIMURIUM, Strain/Indicator: TA1530, Metabolic Activation: NONE, Method: STANDARD PLATE) was “inactive; negative”; the mutagenic call (Test System: AMES SALMONELLA TYPHIMURIUM, Strain/Indicator: TA1530, Metabolic Activation: RAT, LIVER, S-9, AROCLOR 1254, Method: STANDARD PLATE) is “inactive; negative”. The mutagenic call under setting [4] was “inactive; negative” and the mutagenic call (Test System: AMES SALMONELLA TYPHIMURIUM, Strain/Indicator: TA1537, Metabolic Activation: RAT, LIVER, S-9, AROCLOR 1254, Method: STANDARD PLATE) was “inactive; negative”.
Turning to `O=C1CC(O)C(O)c2ccc3c4c(ccc3c21)CCC4` (stereo not drawn), the mutagenic call by setting is: (Test System: AMES SALMONELLA TYPHIMURIUM, Strain/Indicator: TA100, Metabolic Activation: RAT, LIVER, MICROSOMES, 15,16-DIHYDROCYCLOPENTA[A]PHENANTHREN-17-ONE, Method: STANDARD PLATE) “inactive; negative”; (Test System: AMES SALMONELLA TYPHIMURIUM, Strain/Indicator: TA100, Metabolic Activation: RAT, LIVER, MICROSOMES, AROCLOR 1254, Method: STANDARD PLATE) “active; positive”; (Test System: AMES SALMONELLA TYPHIMURIUM, Strain/Indicator: TA100, Metabolic Activation: RAT, LIVER, MICROSOMES, BENZO[A]PYRENE, Method: STANDARD PLATE) “active; positive”; (Test System: AMES SALMONELLA TYPHIMURIUM, Strain/Indicator: TA100, Metabolic Activation: RAT, LIVER, MICROSOMES, CLOFIBRATE, Method: STANDARD PLATE) “inactive; negative”; (Test System: AMES SALMONELLA TYPHIMURIUM, Strain/Indicator: TA100, Metabolic Activation: RAT, LIVER, MICROSOMES, DEXAMETHASONE, Method: STANDARD PLATE) “inactive; negative”; (Test System: AMES SALMONELLA TYPHIMURIUM, Strain/Indicator: TA100, Metabolic Activation: RAT, LIVER, MICROSOMES, ISONIAZID, Method: STANDARD PLATE) “inactive; negative”. Further, where the note is “Test System: AMES SALMONELLA TYPHIMURIUM, Strain/Indicator: TA100, Metabolic Activation: RAT, LIVER, MICROSOMES, PHENOBARBITONE, Method: STANDARD PLATE”, the mutagenic call was “inactive; negative”.
`O[C@H]1C=Cc2ncccc2[C@@H]1O`: the mutagenic call under setting [5] is “inactive; negative” and the mutagenic call (Test System: AMES SALMONELLA TYPHIMURIUM, Strain/Indicator: TA100, Metabolic Activation: RAT, LIVER, S-9, AROCLOR 1254 (10 OR 20%), Method: STANDARD PLATE) is “inactive; negative”.
For the compound `CC1=C(C)C2(C3=CC(=O)C=CC3=Nc3ccc(O)cc32)C(C)=C(C)C1=O`, the mutagenic call (Test System: AMES SALMONELLA TYPHIMURIUM, Strain/Indicator: TA1538, Metabolic Activation: NONE, Method: STANDARD PLATE) is “inactive; negative” and the mutagenic call (Test System: AMES SALMONELLA TYPHIMURIUM, Strain/Indicator: TA1538, Metabolic Activation: RAT, LIVER, S-9, AROCLOR 1254, Method: STANDARD PLATE) was “inactive; negative”.
